According to PMC3082517 (PLoS Biology, 2011):

What was measured:
[1] = target: T1, p75^NTR (Rattus norvegicus, UniProt P07174); assay: Heterologous [3H]-DHEA displacement, HEK293^p75NTR cell membranes; type: binding
T1 construct: expressed in transfected cells; host or cells: HEK293
T1 sequence (P07174 30-425): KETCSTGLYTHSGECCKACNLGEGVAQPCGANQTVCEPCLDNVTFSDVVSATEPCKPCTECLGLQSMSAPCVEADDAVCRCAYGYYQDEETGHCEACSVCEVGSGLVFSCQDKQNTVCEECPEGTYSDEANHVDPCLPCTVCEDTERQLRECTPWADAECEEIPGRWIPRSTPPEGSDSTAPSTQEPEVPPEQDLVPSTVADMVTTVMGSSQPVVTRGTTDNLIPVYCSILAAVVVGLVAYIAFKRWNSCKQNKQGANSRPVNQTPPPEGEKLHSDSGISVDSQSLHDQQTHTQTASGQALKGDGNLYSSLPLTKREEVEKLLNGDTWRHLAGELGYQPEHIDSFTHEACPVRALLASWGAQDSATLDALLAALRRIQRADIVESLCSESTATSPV

[2] = target: TrkA receptor; conditions: extracellular and cytoplasmic juxtamembrane domains of TrkA; read-out: Kd of binding to TrkA receptor; cited from earlier work
[3] = target: T2, TrkA (Rattus norvegicus, UniProt P35739); assay: Heterologous [3H]-DHEA displacement, HEK293^TrkA cell membranes; type: binding; set-up: expressed in transfected cells; host or cells: HEK293
T2 sequence (P35739 33-799): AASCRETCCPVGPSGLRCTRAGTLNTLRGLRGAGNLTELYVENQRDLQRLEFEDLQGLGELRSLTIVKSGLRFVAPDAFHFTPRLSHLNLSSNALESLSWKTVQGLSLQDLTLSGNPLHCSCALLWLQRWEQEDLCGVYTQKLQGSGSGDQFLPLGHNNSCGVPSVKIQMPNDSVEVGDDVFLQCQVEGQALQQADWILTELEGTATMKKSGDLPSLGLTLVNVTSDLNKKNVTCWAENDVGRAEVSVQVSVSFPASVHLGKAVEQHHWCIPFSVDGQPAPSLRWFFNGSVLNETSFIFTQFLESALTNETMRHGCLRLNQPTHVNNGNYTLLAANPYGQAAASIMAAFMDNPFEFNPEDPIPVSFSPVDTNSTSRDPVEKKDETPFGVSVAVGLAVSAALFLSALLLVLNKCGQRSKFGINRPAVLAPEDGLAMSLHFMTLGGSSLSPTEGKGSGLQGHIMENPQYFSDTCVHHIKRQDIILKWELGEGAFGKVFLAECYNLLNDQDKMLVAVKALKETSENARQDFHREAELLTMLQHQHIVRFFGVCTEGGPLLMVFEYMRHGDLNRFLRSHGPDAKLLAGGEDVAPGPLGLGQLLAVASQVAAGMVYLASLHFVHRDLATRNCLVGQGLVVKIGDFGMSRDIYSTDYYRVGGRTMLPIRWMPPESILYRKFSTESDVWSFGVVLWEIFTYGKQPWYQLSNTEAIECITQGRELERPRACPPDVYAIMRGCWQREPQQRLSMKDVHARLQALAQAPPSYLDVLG

[4] = target: T2, TrkA; assay: TrkA phosphorylation in HEK293^TrkA transfectants (anti-tyrosine IP, Western blot); type: cell-based; set-up: expressed in transfected cells; host or cells: HEK293; conditions: 10 min (and 20 min), steroids 100 nM, NGF 100 ng/ml
Protocol: HEK293 cells were transfected with the appropriate plasmids (TrkA, p75^NTR, RIP2, TRAF-6, and RhoGDI) by using Lipofectamine 2000 (Invitrogen). Cells were harvested 48 h after transfection and suspended in lysis buffer (50 mM Tris-HCl, 0.15 M NaCl, 1% Triton-X100, pH 7.4) supplemented with protease inhibitors. Lysates were precleared for 1 h with Protein A-Sepharose beads (Amersham) and immunoprecipitated with the appropriate antibody (pTyr, Flag, or c-myc) overnight at 4°C. Protein A Sepharose beads were incubated with the lysates for 4 h at 4°C with gentle shaking. […] Beads were collected by centrifugation, washed four times with lysis buffer, and resuspended in SDS loading buffer. Proteins were separated by SDS/PAGE, followed by immunoblotting with specific antibodies.
PC12 or HEK293 cells lysates were electrophoresed through a 12% SDS-polyacrylamide gel, and then proteins were transferred to nitrocellulose membranes, which were processed according to standard Western blotting procedures, as previously described. To detect protein levels, membranes were incubated with the appropriate antibodies: Bcl-2 (dilution 1∶500), phospho TrkA (dilution 1∶500), total TrkA (dilution1∶500), p75^NTR (dilution 1∶500), phospho Shc (dilution 1∶1000), total Shc (dilution 1∶1000), phospho Akt (dilution 1∶500), total Akt (dilution 1∶500), phospho ERK1/2 (dilution 1∶500), and total ERK1/2 (dilution 1∶500). Proteins were visualized using the ECL Western blotting kit (ECL Amersham Biosciences, UK), and blots were exposed to Kodak X-Omat AR films. A PC-based Image Analysis program was used to quantify the intensity of each band (Image Analysis, Inc., Ontario, Canada).
To normalize for protein content the blots were stripped and stained with GAPDH antibody (dilution 1∶1000); the concentration of each target protein was normalized versus GAPDH. Where phosphorylation of TrkA or kinases was measured, membranes were first probed for the phosphorylated form of the protein, then stripped, and probed for the total protein.

[5] = target: p75NTR (Homo sapiens) (UniProt P08138); conditions: cited from earlier work
Chain of p75NTR (Homo sapiens) (P08138 29-250): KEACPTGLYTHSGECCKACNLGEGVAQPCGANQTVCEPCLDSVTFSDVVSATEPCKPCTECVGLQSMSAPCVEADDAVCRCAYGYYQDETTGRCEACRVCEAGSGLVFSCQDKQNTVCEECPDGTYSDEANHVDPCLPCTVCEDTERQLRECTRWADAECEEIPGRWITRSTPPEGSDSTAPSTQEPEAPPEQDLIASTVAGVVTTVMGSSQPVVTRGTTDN

[6] = target: T3, rat TrkA receptor expressed in HEK293 cells (HEK293^TrkA) (rat, UniProt P35739 33-799); assay: radioligand binding; heterologous displacement of 1 nM [3H]-DHEA (a steroid) by unlabeled NGF (10^-12-10^-6 M) on membranes (2 mg/ml) of HEK293^TrkA and HEK293^p75NTR cells, PBS pH 7.4 with protease inhibitors, collected on GF/B filters; conditions: one partner purified
T3 construct: TrkA (NGF receptor tyrosine kinase), rat, expressed from the pHA vector backbone; source: HEK293, transfected (Lipofectamine 2000); crude membranes and whole cells
T3 sequence (P35739 33-799): as the sequence (P35739 33-799) above

[7] = target: T4, rat p75^NTR receptor expressed in HEK293 cells (HEK293^p75NTR) (rat, UniProt P07174 30-425); assay: as above; conditions: one partner purified
T4 construct: also called p75 neurotrophin receptor; source: HEK293, transfected (Lipofectamine 2000); crude membranes, whole cells and lysate
T4 sequence (looked up): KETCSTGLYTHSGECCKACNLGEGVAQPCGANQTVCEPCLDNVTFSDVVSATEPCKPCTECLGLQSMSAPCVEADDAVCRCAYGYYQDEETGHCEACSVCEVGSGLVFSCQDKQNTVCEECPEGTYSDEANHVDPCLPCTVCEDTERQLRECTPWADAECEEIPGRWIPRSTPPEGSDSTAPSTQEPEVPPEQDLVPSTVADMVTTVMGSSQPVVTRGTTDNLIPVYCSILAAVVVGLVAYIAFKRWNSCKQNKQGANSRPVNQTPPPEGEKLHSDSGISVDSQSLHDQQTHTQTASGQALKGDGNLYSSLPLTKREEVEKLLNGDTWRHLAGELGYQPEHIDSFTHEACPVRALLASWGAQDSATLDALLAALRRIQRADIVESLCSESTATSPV

[8] = target: T3, rat TrkA receptor expressed in HEK293 …; assay: radioligand binding; homologous [125I]-NGF displacement with unlabeled NGF on membranes isolated from HEK293^TrkA and HEK293^p75NTR transfectants; conditions: one partner purified
[9] = target: T4, rat p75^NTR receptor expressed in …; assay: as above; conditions: one partner purified

## C[C@@H]1C[C@H]2[C@@H]3CCC4=CC(=O)C=C[C@]4(C)[C@@]3(F)[C@@H](O)C[C@]2(C)[C@@]1(O)C(=O)CO [dexamethasone]
[1]; HEK293^p75NTR membranes, competitor up to 1000 nM
  displacement of [3H]-DHEA binding (in words): ineffective

## CC(C)=CCC[C@]1(C)C=Cc2c(O)c3c(c(CC=C(C)C)c2O1)O[C@]12C(=C[C@@H]4CC1C(C)(C)O[C@@]2(C/C=C(/C)C(N)=O)C4=O)C3=O [gambogic amide]
[2]
  Kd: 75 nM

## C[C@]12CC[C@H]3[C@@H](CCC4=CC(=O)CC[C@@]43C)[C@@H]1CC[C@@H]2O [testosterone]
[3]
  IC50: 5.3 ± 2.1 nM
[4]
  phosphorylation of TrkA: unable to increase
[1]
  IC50: 7.4 ± 3.2 nM

## NGF (from UniProt P01138)
[5]
  Kd: 1 nM

B1: nerve growth factor (NGF), unlabeled (ligand, UniProt P01139 122-241, looked up)
chain: SSTHPVFHMGEFSVCDSVSVWVGDKTTATDIKGKEVTVLAEVNINNSVFRQYFFETKCRASNPVESGCRGIDSKHWNSYCTTTHTFVKALTTDEKQAAWRFIRIDTACVCVLSRKATRRG
notes: nerve growth factor (NGF); The species of the NGF is told nowhere; also called unlabeled NGF
[6]
  IC50: 0.8 ± 0.2 nM
[7]
  IC50: 1.19 ± 0.45 nM
[8]
  IC50: 0.3 ± 0.09 nM
[9]
  IC50: 1.7 ± 0.38 nM
